{
  "source": "patent US9512178B2",
  "about": "“Neurogenic brain-derived neurotrophic factor peptides” (Research Foundation for Mental Hygiene, Inc., priority 2012, dated 2016)",
  "key": {"TrkB receptor [1]": {"molecular_target": "T1, TrkB receptor (Homo sapiens, UniProt Q16620)", "T1 construct": "host or cells: NIH 3T3 fibroblasts, G418 selection", "T1 sequence (Q16620 32-822)": "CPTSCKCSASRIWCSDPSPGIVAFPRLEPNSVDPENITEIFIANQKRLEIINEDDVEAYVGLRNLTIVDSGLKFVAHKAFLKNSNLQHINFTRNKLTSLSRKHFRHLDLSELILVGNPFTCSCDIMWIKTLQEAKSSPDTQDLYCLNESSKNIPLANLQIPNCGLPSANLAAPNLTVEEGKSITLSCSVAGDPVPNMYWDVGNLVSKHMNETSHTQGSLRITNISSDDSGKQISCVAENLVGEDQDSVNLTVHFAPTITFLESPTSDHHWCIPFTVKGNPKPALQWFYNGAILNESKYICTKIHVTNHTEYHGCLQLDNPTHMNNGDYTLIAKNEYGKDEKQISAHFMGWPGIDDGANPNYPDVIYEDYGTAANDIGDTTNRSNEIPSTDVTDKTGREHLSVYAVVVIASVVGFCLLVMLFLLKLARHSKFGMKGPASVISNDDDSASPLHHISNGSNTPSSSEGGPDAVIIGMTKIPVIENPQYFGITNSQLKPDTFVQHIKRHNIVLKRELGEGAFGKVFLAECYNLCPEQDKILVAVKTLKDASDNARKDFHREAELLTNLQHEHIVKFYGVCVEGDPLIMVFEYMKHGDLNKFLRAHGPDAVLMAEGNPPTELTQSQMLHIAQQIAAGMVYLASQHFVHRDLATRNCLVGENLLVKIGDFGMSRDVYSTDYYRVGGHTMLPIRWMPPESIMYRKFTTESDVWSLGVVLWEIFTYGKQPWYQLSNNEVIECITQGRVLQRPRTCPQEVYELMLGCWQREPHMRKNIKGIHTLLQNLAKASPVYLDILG", "experiment": "Competition with BDNF for activation (pTrkB) of TrkB in NIH 3T3 cells stably expressing TrkB", "type": "cell-based", "settings": "0.05 μM to 10 μM with BDNF 1 ng/ml (0.04 nM), 15 min; dose-dependent", "description": "(§1) To study the activation of the TrkB receptor with BDNF and/or with the peptides, NIH 3T3 cells were used, stably transfected with the TrkB receptor (obtained from Montreal Neurological Institute, Montreal, Quábec, Canada). The cell culture medium used for this cell line was: DMEM-high glucose, 10 percent normal calf serum, 1 percent glutamax, 1 percent sodium pyruvate, 1 percent penicillin-streptomycin; supplemented with the selection antibiotic G418 in a final concentration of 100 μg/ml (to guaranty the stable expression of the Trkb transgene). All Medium components were purchase from Gibco Life Technologies, Invitrogen, Grand Island, N.Y., USA.\nTo evaluate a possible competitive role of the peptides in the activation of TrkB receptor by BDNF, a fibroblast (NIH 3T3) cell line stably expressing the TrkB receptor was used. Cells were vehicle-treated or treated with BDNF 1 ng/ml (0.04 nM) in the presence or absence of 0.05 μM to 10 μM B-5 or B-3 for 15 min (FIG. 7A). […] As observed in primary neuronal cultures (shown in FIGS. 5C and D), the treatment with the peptides alone for 15 min induced a weak but significant activation of TrkB receptor when compared to control (ANOVA, p<0.001)."}, "TrkC": {"molecular_target": "T2, TrkC (Homo sapiens, UniProt Q16288)", "T2 construct": "expressed in transfected cells; host or cells: NIH-3T3 fibroblasts", "T2 sequence (Q16288 32-839, species assumed)": "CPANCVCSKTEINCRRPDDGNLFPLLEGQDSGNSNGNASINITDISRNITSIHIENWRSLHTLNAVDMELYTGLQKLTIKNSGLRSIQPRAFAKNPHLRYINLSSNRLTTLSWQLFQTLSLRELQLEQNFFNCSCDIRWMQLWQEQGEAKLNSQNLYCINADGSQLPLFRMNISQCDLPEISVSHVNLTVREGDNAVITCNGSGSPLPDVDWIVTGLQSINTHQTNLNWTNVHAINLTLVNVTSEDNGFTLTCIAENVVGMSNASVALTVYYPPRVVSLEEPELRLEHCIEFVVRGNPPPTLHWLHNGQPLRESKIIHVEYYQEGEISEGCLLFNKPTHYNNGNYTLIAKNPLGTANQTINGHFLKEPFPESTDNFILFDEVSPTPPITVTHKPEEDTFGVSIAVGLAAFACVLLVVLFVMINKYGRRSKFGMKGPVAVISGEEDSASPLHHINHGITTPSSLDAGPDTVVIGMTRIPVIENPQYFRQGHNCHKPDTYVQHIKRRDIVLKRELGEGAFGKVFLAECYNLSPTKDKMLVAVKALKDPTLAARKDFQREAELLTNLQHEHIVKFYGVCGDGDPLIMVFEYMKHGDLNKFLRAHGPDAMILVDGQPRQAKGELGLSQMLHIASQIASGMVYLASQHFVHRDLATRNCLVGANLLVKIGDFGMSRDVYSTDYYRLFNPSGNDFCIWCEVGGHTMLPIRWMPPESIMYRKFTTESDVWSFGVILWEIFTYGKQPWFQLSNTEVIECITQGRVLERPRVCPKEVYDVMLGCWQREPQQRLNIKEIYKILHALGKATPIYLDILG", "experiment": "Trk phosphorylation and TrkC expression in TrkC stably-expressing NIH-3T3 cells", "type": "cell-based", "settings": "for expression of TrkC: 1 μM; for activation of TrkC receptor: peptides 1 μM"}, "BDNF": {"system": "BDNF", "experiment": "BDNF expression, Western blot, 5 days treatment", "type": "cell-based, mouse", "description": "Following treatment in 6-well plates, cells were washed 2× in glucose buffered saline, GBS (5.4 mM KCl, 138 mM NaCl, 22 mM glucose, and 2 mM Na—KPO pH 7.2), and then lysed by 5 min incubation on ice in 100 or 150 μl of ice-cold RIPA buffer (PBS, 1% w/v NP-40 from Fisher Scientific, 0.1% w/v SDS, and 0.5% w/v sodium desoxycholate) containing 1 mM AEBSF (Gold Biotechnology, St. Louis, Mo., USA), 10 μg/ml aprotinin (Sigma-Aldrich, St. Louis, Mo., USA), and 20 μg/ml of leupeptin and pepstatin (US Biochemicals, Cleveland, Ohio, USA), and phosphatase inhibitors: NaF, Na orthovanadate, (3-glycerophosphate, and microcystein (Sigma-Aldrich, St. Louis, Mo., USA). Extracts were prepared by collecting and pooling a minimum of 2 wells by scraping, and lysates were centrifuged at 20,000×g for 10 min at 4° C. Protein concentration of each cell lysate was determined using the BCA kit (Thermo Scientific, Rockford, Ill., USA). The lysates (7.5-20 μg total protein) were separated on 10% SDS-PAGE gels (except for BDNF where 12% gels were employed) and transferred to 0.45 μm PVDF membrane (Pall, Pensacola, Fla., USA) for probing with antibodies as noted. Blots were blocked for 1 hr at 37° C. in 1×TBST (0.05% Tween 20 in TBS) containing 5% w/v blotting grade dry milk (Bio-rad, Hercules, Calif., USA), incubated in primary antibody overnight in blocking buffer at 4° C., washed 3×10 min in TBST at room temperature, followed by incubation with secondary antibody, i.e., peroxidase-conjugated anti-mouse or anti rabbit IgG (Jackson ImmunoResearch Laboratories, West Grove, Pa., USA) diluted in blocking buffer. Blots were washed 3×10 min in TBST and immunoreactive protein bands were visualized with enhanced chemiluminescence (ECL) reagents (Pierce, Rockford, Ill., USA). The ECL films of the blots were scanned and analyzed using Multi Gauge software version 3.0 (Fujifilm, Tokyo, Japan).\nThe following primary antibodies were used: rabbit polyclonal anti-NFM (1:1000; Chemicon/Millipore, Billerica, Mass., USA); mouse monoclonal anti-NeuN, clone A60 (1:500; Millipore, Billerica, Mass., USA); rabbit polyclonal anti-Tuj-1, (3—III-tubulin (Covance; 1:800, Emeryville, Calif., USA); mouse monoclonal SMI 52 to the adult isoforms of MAP-2, MAP2a,b (1:1000; Covance, Emeryvilly, Calif., USA); rabbit polyclonal anti-Synapsin I (1:2000; Stressgen, Farmingdale, N.Y., USA); rabbit monoclonal anti-PSD95 (1:1000; Cell signaling, Danvers, Mass., USA); anti tau 92e (1:10000); mouse monoclonal anti-BDNF (1:1000; Calbiochem, Gibbstown, N.J., USA); rabbit polyclonal anti-TrkB (total) (1:500; Santa Cruz Biotechnology, Santa Cruz, Calif., USA); rabbit polyclonal anti-pTrkB (Tyr706) (1:400; Santa Cruz Biotechnology, Santa Cruz, Calif., USA), TrkC (1:1000; Cruz Biotechnology, Santa Cruz, Calif., USA); and pTrkY490 (1:500; Upstate USA Inc., Charlottesville, Va., USA). For loading control, the blots were developed with rabbit polyclonal antibody to GAPDH (1:2000; Santa Cruz Biotechnology, Santa Cruz, Calif., USA).\nTo investigate the molecular mechanism by which the BDNF peptides promoted neurogenic/neurotrophic activities, the hippocampal primary cultured neurons were treated with the peptides or BDNF for five days and compared with the control medium treated cells."}, "TrkB receptor [2]": {"molecular_target": "T1, TrkB receptor", "experiment": "TrkB expression in TrkB stably-expressing NIH-3T3 fibroblasts, time course", "type": "cell-based", "settings": "1 μM, 60 min", "description": "as §1\nThe NIH 3T3 fibroblasts stably expressing the TrkB receptor were vehicle-treated or treated with BDNF peptides B-5 and B-3 at a concentration of 1 μM or with BDNF at a concentration of 20 ng/ml (0.79 nM) for 5, 15 or 60 min (FIG. 5E, F). […] The effect was time-dependent and was pronounced at 60 min treatment. […] The effect on the increase in expression of TrkB by Peptides B-5 and B-3 could be the way in which the peptides potentiate the BDNF pathway to avoid saturation of the receptors, and/or promote their neurotrophic effect by increasing the expressions of both BDNF (FIGS. 5A and 5B) and TrkB (FIGS. 5C through 5F)."}},
  "data": [
    {"substance": "Ac-I-K-R-G-CONH2 [Peptide B-5]", "values": [
      {"measurement": "competitive inhibition of the activation of TrkB receptor by BDNF", "setting": "TrkB receptor [1]", "result": "significant competitive inhibition"},
      {"measurement": "expression of TrkC", "setting": "TrkC", "result": "neither BDNF (20 ng/mL) nor peptides B-5 (1 μM) and B-3 (1 μM) were able to modify the expression of TrkC"},
      {"measurement": "activation of TrkC receptor", "setting": "TrkC", "result": "neither the peptides nor BDNF were able to activate this receptor"},
      {"measurement": "expression of BDNF (Western blot)", "setting": "BDNF; 0.1 μM", "result": "strongest induction"},
      {"measurement": "expression of BDNF (Western blot)", "setting": "BDNF; 1 μM", "result": "lost"},
      {"measurement": "expression of BDNF (Western blot)", "setting": "BDNF; vs control medium", "result": "induced the expression of BDNF"},
      {"measurement": "expression of the receptor TrkB", "setting": "TrkB receptor [2]", "result": "marked increase"}
    ]},
    {"substance": "Ac-S-KKR-CONH2 [Peptide B-3]", "values": [
      {"measurement": "competitive inhibition of the activation of TrkB receptor by BDNF", "setting": "TrkB receptor [1]", "result": "significant competitive inhibition"},
      {"measurement": "expression of TrkC", "setting": "TrkC", "result": "neither BDNF (20 ng/mL) nor peptides B-5 (1 μM) and B-3 (1 μM) were able to modify the expression of TrkC"},
      {"measurement": "activation of TrkC receptor", "setting": "TrkC", "result": "neither the peptides nor BDNF were able to activate this receptor"},
      {"measurement": "expression of BDNF (Western blot)", "setting": "BDNF; 0.1 μM", "result": "not at 0.1 μM"},
      {"measurement": "expression of BDNF (Western blot)", "setting": "BDNF; 1 μM", "result": "induced an increase"},
      {"measurement": "expression of BDNF (Western blot)", "setting": "BDNF; vs control medium", "result": "induced the expression of BDNF"},
      {"measurement": "expression of the receptor TrkB", "setting": "TrkB receptor [2]", "result": "marked increase"}
    ]}
  ]
}
